Assay results from PubChem BioAssay AID2060894 (Molecular Pharmacology Branch, DTP, NCI, 2025).

Test system: K12877-001-R-J1-PDC complex spheroid viability
Test: Anticancer human tumor K12877-001-R-J1-PDC patient-derived lung adenocarcinoma cell line growth inhibition [RAS]
Conditions: for viability, T/C: stronger effect = lower value
In short: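 Agents were tested in combination matrices in half-log decrements from a top concentration at or near clinical Cmax (10 microM if undetermined). Targets were multi-cell spheroids of tumour lines plus HUVEC and MSC stromal cells.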
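Further: spheroids exposed to agents for one week before readout.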
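Wherever viability, T/C is given: tumour cells co-cultured with HUVEC and mesenchymal stem cells in spheroids.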

With `C[C@@H](NC(=O)c1ncnc(N)c1Cl)c1ncc(C(=O)Nc2cc(C(F)(F)F)c(Cl)cn2)s1` the viability, T/C (compound 0.0316 µM) was 110% [middle of 4 runs], the viability, T/C (compound 0.1 µM) was 99.7% [middle of 4 runs] and the viability, T/C (compound 0.316 µM) was 95% [middle of 4 runs]. The viability, T/C (compound 1 µM) was 103% [middle of 4 runs], the viability, T/C (compound 3.16 µM) was 100% [middle of 4 runs] and the viability, T/C (compound 10 µM) was 95.4% [middle of 4 runs]. For the same compound, the IC50 (curve of compound) was > 10 µM.
Work on `Nc1ccn(C2OC(CO)C(O)C2(F)F)c(=O)n1` (centres undefined) + CCn1c(-c2cccnc2C(C)OC)c2c3cc(ccc31)N1CCOC(CC(NC(=O)C(C(C)C)N(C)C(=O)C3(F)CCN(C(=O)C#CC(C)(C)N(C)C)CC3)C(=O)N3CCCC(N3)C(=O)OCC(C)(C)C2)C1 yielded an IC50 (curve of first compound, second compound 0.000949 µM) of 0.0145 µM, an IC50 (curve of first compound, second compound 0.003 µM) of 0.0132 µM and an IC50 (curve of first compound, second compound 0.00949 µM) of 0.0127 µM. The IC50 (curve of first compound, second compound 0.03 µM) was 0.0124 µM, the IC50 (curve of first compound, second compound 0.0949 µM) was 0.0105 µM and the IC50 (curve of first compound, second compound 0.3 µM) was 0.00589 µM. The viability, T/C (second compound 0.000949 µM, first compound 0.00316 µM) was 83.5%, the viability, T/C (second compound 0.000949 µM, first compound 0.01 µM) was 71.9% and the viability, T/C (second compound 0.000949 µM, first compound 0.0316 µM) was 4.44%. For the same compound, the viability, T/C (second compound 0.000949 µM, first compound 0.1 µM) was 3.87%, the viability, T/C (second compound 0.000949 µM, first compound 0.316 µM) was 3.37% and the viability, T/C (second compound 0.000949 µM, first compound 1 µM) was 4.46%. The viability, T/C (second compound 0.003 µM, first compound 0.00316 µM) was 82.3%, the viability, T/C (second compound 0.003 µM, first compound 0.01 µM) was 64.6% and the viability, T/C (second compound 0.003 µM, first compound 0.0316 µM) was 4.22%. The viability, T/C (second compound 0.003 µM, first compound 0.1 µM) was 3.94%, the viability, T/C (second compound 0.003 µM, first compound 0.316 µM) was 5.22% and the viability, T/C (second compound 0.003 µM, first compound 1 µM) was 3.83%. It also gave a viability, T/C (second compound 0.00949 µM, first compound 0.00316 µM) of 79.7%, a viability, T/C (second compound 0.00949 µM, first compound 0.01 µM) of 61.6% and a viability, T/C (second compound 0.00949 µM, first compound 0.0316 µM) of 5.4%. It also gave a viability, T/C (second compound 0.00949 µM, first compound 0.1 µM) of 4.58%, a viability, T/C (second compound 0.00949 µM, first compound 0.316 µM) of 3.59% and a viability, T/C (second compound 0.00949 µM, first compound 1 µM) of 3.51%. The viability, T/C (second compound 0.03 µM, first compound 0.00316 µM) was 82.2%, the viability, T/C (second compound 0.03 µM, first compound 0.01 µM) was 60.4% and the viability, T/C (second compound 0.03 µM, first compound 0.0316 µM) was 3.17%. It also gave a viability, T/C (second compound 0.03 µM, first compound 0.1 µM) of 4.94%, a viability, T/C (second compound 0.03 µM, first compound 0.316 µM) of 4.16% and a viability, T/C (second compound 0.03 µM, first compound 1 µM) of 3.02%. The viability, T/C (second compound 0.0949 µM, first compound 0.00316 µM) was 77.2%, the viability, T/C (second compound 0.0949 µM, first compound 0.01 µM) was 52% and the viability, T/C (second compound 0.0949 µM, first compound 0.0316 µM) was 5.2%. The viability, T/C (second compound 0.0949 µM, first compound 0.1 µM) was 3.34%, the viability, T/C (second compound 0.0949 µM, first compound 0.316 µM) was 2.8% and the viability, T/C (second compound 0.0949 µM, first compound 1 µM) was 3.38%. The viability, T/C (second compound 0.3 µM, first compound 0.00316 µM) was 71.6%, the viability, T/C (second compound 0.3 µM, first compound 0.01 µM) was 31.5% and the viability, T/C (second compound 0.3 µM, first compound 0.0316 µM) was 3.46%. For the same compound, the viability, T/C (second compound 0.3 µM, first compound 0.1 µM) was 2.66%, the viability, T/C (second compound 0.3 µM, first compound 0.316 µM) was 3.3% and the viability, T/C (second compound 0.3 µM, first compound 1 µM) was 3.43%.
